The subject of series [1] is BBOX. As to conditions: read-out: KM of BBOX for 2OG; cited from earlier work.
For series [2], the system named is histone demethylases (KDMs). As to the kind of experiment: Selectivity panel of human 2OG oxygenases: histone demethylases. As to conditions: at 100 μM. The series is classed as biochemical.
In series [3] the test system is carnitine biosynthesis in HEK 293T cells. As to the kind of experiment: LC-MS detection of carnitine levels in HEK 293T cells. The series is classed as cell-based, human. The note with it: for Carnitine levels: control 100% (SEM ± 13%).
Another series has as its system HEK 293T cells. The series can be described thus: Cytotoxicity in HEK 293T cells. The note with it: up to concentrations of 0.5 mM. The format is cell-based, human.
In series [4] the test system is BBOX. As to conditions: read-out: IC50 BBOX in vitro; cited from earlier work.
For series [5], the target named is T1, BBOX (Homo sapiens, UniProt O75936).
T1 sequence (O75936 1-387): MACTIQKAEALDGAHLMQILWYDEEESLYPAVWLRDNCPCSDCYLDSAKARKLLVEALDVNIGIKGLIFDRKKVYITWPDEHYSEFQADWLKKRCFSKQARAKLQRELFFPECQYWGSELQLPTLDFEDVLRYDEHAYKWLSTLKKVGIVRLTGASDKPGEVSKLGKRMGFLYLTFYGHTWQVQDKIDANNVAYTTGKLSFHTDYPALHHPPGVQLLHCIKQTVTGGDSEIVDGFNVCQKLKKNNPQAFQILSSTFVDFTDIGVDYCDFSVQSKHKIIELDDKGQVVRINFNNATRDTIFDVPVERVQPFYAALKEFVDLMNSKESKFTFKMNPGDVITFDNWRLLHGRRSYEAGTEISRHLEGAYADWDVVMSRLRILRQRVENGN
The series can be described thus: Binding assay by quenching of the intrinsic fluorescence of BBOX.

A value given as a limit tells only on which side of the number the result lay.

With `O=C(O)CCC(=O)C(=O)O` [2OG, 2-oxoglutarate], the Michaelis constant (Km) – broadly, the substrate concentration at which the rate is half of its maximum – in the series on BBOX [1] was 160 µM.
As for `O=C(N[C@@H](CSCc1ccccn1)C(=O)O)c1ncccc1O` [AR692B], the “Activity against the tested KDMs” value in series [2] is “inactive”. Moreover, in series [3] (HEK 293T cells, 100 μM), the “Reduction in carnitine levels” value is more than 40%. The Carnitine levels in series [3] (HEK 293T cells, 100 μM compound) is on record as 57 ± 9 percentage of free carnitine l. Further, the Cytotoxicity entry in the series with HEK 293T cells is reported as “not cytotoxic”.
In the case of `C[N+](C)(C)CCCC(=O)[O-]` [GBB, γ-butyrobetaine], in series [3] (cells, 20 μM), the “Reduction of carnitine levels” value was ~ 50%.
With `C[N+](C)(C)NCCC(=O)[O-]` [Mildronate], the Carnitine levels in series [3] (HEK 293T cells, 20 μM compound) is listed as 70 ± 6 percentage of free carnitine l; in series [3] (HEK 293T cells, 50 μM compound), 37 ±10 percentage of free carnitine l. The “Reduction of carnitine levels” value in series [3] (HEK 293T cells, 50 μM) is recorded as 63%; in series [3] (cells, 20 μM), 30%. For the same molecule, in series [3] (HEK 293T cells, below 5 μM), the “Activity on carnitine levels” value is “not active”. Besides, the IC50 (in general, the concentration at which inhibition is half-maximal) with BBOX [4] is 60 µM.
Consider `O=C(O)CNC(=O)c1ncccc1O` [compound 1, (3-hydroxypicolinoyl)glycine], for which, on BBOX [5], the dissociation constant (Kd) (commonly a measure of binding affinity in units of concentration) amounted to 10.8 µM.

These data come from PMC4678601 (Chemical science (Royal Society of Chemistry : 2010), 2014).
